Experimental data published in article PMC11536652 (BMC Chemistry, 2024).
Read-outs that look alike come from different tables or passages of the source.

Experiments:
[1] = Stability of tepotinib in QC plasma samples; assay type: in vitro ADME, rat
[2] = previous study, humans; cited from earlier work
[3] = tepotinib 50 mg/kg oral, rat plasma, mean ± SD

stability maintained (long-term stability) ([1]; -80 ℃ refrigerator): 4 weeks | stability maintained over freeze‒thaw cycles ([1]; -80 ℃ to ambient temperature): 3 freeze‒thaw cycles | stability maintained (short-term stability) ([1]; ambient temperature): 3 h | stability maintained in autosampler ([1]; autosampler (10 ℃)): 6 h | CLz/F ([3]; Group A: control (0.5% CMC-Na)): 10.88 ± 1.04 L/h | AUC(0-t) ([3]; male, Sprague-Dawley, rat, in vivo, po, 50 mg/kg, AUC0→t, Group A: control (0.5% CMC-Na)): 4600 ± 458 ng·h/mL | AUC(0-inf) ([3]; male, Sprague-Dawley, rat, in vivo, po, 50 mg/kg, AUC0→∞, Group A: control (0.5% CMC-Na)): 4630 ± 454 ng·h/mL | Cmax ([3]; male, Sprague-Dawley, rat, in vivo, po, 50 mg/kg, Cmax, Group A: control (0.5% CMC-Na)): 180 ± 38.2 ng/mL | MRT last ([3]; male, Sprague-Dawley, rat, in vivo, po, 50 mg/kg, MRT0→t, Group A: control (0.5% CMC-Na)): 18.9 ± 1.21 h | MRT inf ([3]; male, Sprague-Dawley, rat, in vivo, po, 50 mg/kg, MRT0→∞, Group A: control (0.5% CMC-Na)): 19.4 ± 1.36 h | Tmax ([3]; male, Sprague-Dawley, rat, in vivo, po, 50 mg/kg, Tmax, Group A: control (0.5% CMC-Na)): 8.8 ± 3.03 h | half-life ([3]; male, Sprague-Dawley, rat, in vivo, po, 50 mg/kg, t1/2, Group A: control (0.5% CMC-Na)): 9.4 ± 2.35 h
SMILES: CN1CCC(COc2cnc(-c3cccc(Cn4nc(-c5cccc(C#N)c5)ccc4=O)c3)nc2)CC1 [tepotinib, Tepotinib]
Tmax [2]: 9 h
